Laboratory results: US10968186B2, “Ascochlorin derivative and use thereof as AMPK activator” (priority 2016, dated 2021)
≈ marks a conversion by molar mass, not a printed value. Read-outs that look alike come from different tables or passages of the source.

Legend:
[1] = Solubility in pH4.0 and pH7.4 phosphate buffer solution; format: physicochemical; conditions: phosphate buffer (PBS), aqueous buffer, kinetic from dmso stock, 2 hr incubation, 25° C.
Procedure: 1) Preparation of Stock Solutions
Diclofenac was used as positive control in the assay.
2) Procedures for Solubility Determination
This study was performed in duplicate. […] The filtered samples were diluted with methanol.
3) Samples Analyzed by LC-MS/MS

A549 = experiment: Anti-proliferative activity, CellTiterGlo assay, A549; format: cell-based; conditions: Homo sapiens; A549, 96 hrs incubation; read-out: Antiproliferative activities IC50, A549
Procedure: (§1) The anti-proliferative activities of the compounds against 6 human cancer cell lines were determined by CellTiterGlo assay kit. All cells were obtained from ATCC and cultured as recommended by the vendor. Cells were assayed in exponential growth phase. Sample solution was prepared by 3-fold serial dilution from 30 mM stock for 10 doses in DMSO. Antiproliferative activities were measured by CellTiterGlo assay kit according to the protocol after cells were incubated for 96 hrs in a 37° C., 5% CO2 incubator.
(§2) On the 4th day of incubation, i) 15 μl reagent (CelltiterGlo assay kit) was added per well and plate was shaken (avoiding light) for 2 mins on a plate shaker, ii) the plate was kept (avoiding light) in room temperature for 30 min, and iii) the luminescence value was recorded by Multiplate reader.

HT29 = experiment: Anti-proliferative activity, CellTiterGlo assay, HT29; format: cell-based; conditions: Homo sapiens, HT-29; HT29, 96 hrs incubation; read-out: Antiproliferative activities IC50, HT29
Procedure: as §1, §2

BxPC-3 = experiment: Anti-proliferative activity, CellTiterGlo assay, BxPC-3; format: cell-based; conditions: Homo sapiens; BxPC-3, 96 hrs incubation; read-out: Antiproliferative activities IC50, BxPC-3
Procedure: as §1, §2

LNCaP = experiment: Anti-proliferative activity, CellTiterGlo assay, LNCaP; format: cell-based; conditions: Homo sapiens, 96 hrs incubation, read-out: Antiproliferative activities IC50, LNCaP
Procedure: as §1, §2

MDA-MB-231 = experiment: Anti-proliferative activity, CellTiterGlo assay, MDA-MB-231; format: cell-based; conditions: Homo sapiens; MDA-MB-231, 96 hrs incubation; read-out: Antiproliferative activities IC50, MDA-MB-231
Procedure: as §1, §2

U87-MG = experiment: Anti-proliferative activity, CellTiterGlo assay, U87-MG; format: cell-based; conditions: Homo sapiens, U-87 MG, 96 hrs incubation, read-out: Antiproliferative activities IC50, U87-MG
Procedure: as §1, §2

[2] = Stability against human liver microsomes; format: in vitro ADME; conditions: 2 μM compound
Procedure: (§3) Determination of Stability Against Mouse and Human Mirosomes
(§4) Pooled human liver microsomes (Cat. 452161; Lot. 23418) were purchased from Corning and pooled male mouse liver microsomes (Cat. M1000; Lot. 1210302) were purchased from Xenotech. Microsomes were stored at −80° C. prior to use. 40 μL of ultra-pure H2O was used instead of NADPH solution in the negative control. The negative control was used to exclude the misleading factor that was resulted from instability of chemical itself. Samples with NADPH were prepared in duplicate. Negative controls were prepared in singlet.
(§5) The reaction was started with the addition of 4 μL of 200 μM compound solution to each master solution to get the final concentration of 2 μM. Verapamil was used as positive control in the assay. Aliquots of 50 μL were taken from the reaction solution at 0, 15, 30, 45 and 60 min. The reaction was stopped by addition of 4 volumes of cold acetonitrile with IS (200 nM imipramine, 200 nM labetalol and 2 μM ketoprofen). Samples were centrifuged at 3,220 g for 40 minutes. Aliquot of […] of the supernatant was mixed with 90 μL of ultra-pure H2O and then was used for LC-MS/MS analysis. Results are shown in Table 3 by indicating remaining % of the test compound after 60 minutes incubation with liver microsomes from human and mouse in the presence of NADPH.

[3] = Stability against mouse liver microsomes; format: in vitro ADME; conditions: mouse LM, 2 μM compound, 60 min, NADPH
Procedure: as §3, §4, §5

[4] = tested on: HFD-STZ C57BL/6J mice model; experiment: In vivo efficacy in HFD-STZ C57BL/6J mice model
Procedure: In Vivo Efficacy in HFD-STZ C57BL/6J Mice Model
Diet induced obesity model establishment:
C57BL/6J mice were fed with high fat diet (Research Diets, D12492) for 64 days, and streptozotocin (10 mg/kg) was given orally on day 22 and day 29. Compound treatment was done from day 36 to day 63.
Based on the animal's body weight and oral glucose tolerance test (OGTT) on week 5, mice were randomly assigned to respective groups using a computer-generated randomization procedure.
Blood glucose level was measured with the blood from tail vein every 2nd week by using Accu-Chek Aviva System.
Blood Chemistry Analysis:
Blood samples were obtained from collection on Day 49 and 65, the samples were immediately processed by centrifugation at 4° C., 4,000 g for 15 minutes, and then they were transferred into a new test tube. Lipid profile and full panel blood bio-chemistry parameters were measured by using TOSHIBA TBA-40FR automated biochemical analyzer.

[5] = pH 4.0 phosphate buffer solution, read-out: Solubility, pH 4.0 PBS
[6] = pH 7.4 phosphate buffer solution, read-out: Solubility, pH 7.4 PBS
[7] = OGTT assay, versus group treated with vehicle
[8] = once a day oral treatment for 28 days at 0.25 to 16 mg/kg

Row | solubility at 2 h [1, 5] [µM] | solubility at 2 h [1, 6] [µM] | IC50 (A549) [µM] | IC50 (HT29) [µM] | IC50 (BxPC-3) [µM] | IC50 (LNCaP) [µM] | IC50 (MDA-MB-231) [µM] | IC50 (U87-MG) [µM] | melting point [°C] | Liver microsome stability remaining % after 60 min incubation with NADPH, human LM [2] [%] | Liver microsome stability remaining % after 60 min incubation with NADPH, mouse LM [3] [%] | Compound | OGTT: blood glucose level after 2 hours of glucose administration, lower than control group [4, 7] [%] | OGTT: glucose AUC lower than control group [4, 7] [%] | decrease of HbA1C level [4, 8] [%] | decrease of blood glucose level [4, 8] [%]
1 | 29 (≈ 13.3 µg/mL) | 0.01 (≈ 0.0046 µg/mL) | 1.9 | 3.8 | 2.7 | 1.1 | 6 | 3.2 | – | – | – | COc1c(Cl)c(C)c(C=O)c(O)c1C/C=C(C)/C=C/[C@@]1(C)[C@H](C)CCC(NC2CC2)[C@@H]1C (stereo partly drawn) [Compound 22, 3-chloro-5-[(2E,4E)-5-[(1R,2R,6R)-3-(cyclopropylamino)-1,2,6-trimethylcyclohexyl]-3-methylpenta-2,4-dien-1-yl]-6-hydroxy-4-methoxy-2-methylbenzaldehyde] | – | – | – | –
2 | – | – | – | – | – | – | – | – | 158 to 160 | – | – | COc1c(Cl)c(C)c(C=O)c(O)c1C/C=C(C)/C=C/[C@@]1(C)[C@H](C)CC/C(=N\O)[C@@H]1C [Compound 2, 3-chloro-6-hydroxy-5-[(2E,4E)-5-[(1R,2R,3E,6R)-3-(hydroxyimino)-1,2,6-trimethylcyclohexyl]-3-methylpenta-2,4-dien-1-yl]-4-methoxy-2-methylbenzaldehyde] | – | – | – | –
3 | 186 (≈ 83.3 µg/mL) | 0.32 (≈ 0.143 µg/mL) | 4.8 | 2.7 | 2.3 | 1.9 | 4.1 | 2.3 | – | – | – | CCNC1CC[C@@H](C)[C@](C)(/C=C/C(C)=C/Cc2c(O)c(C=O)c(C)c(Cl)c2OC)[C@H]1C (stereo partly drawn) [Compound 20, 3-chloro-5-[(2E,4E)-5-[(1R,2R,6R)-3-(ethylamino)-1,2,6-trimethylcyclohexyl]-3-methylpenta-2,4-dien-1-yl]-6-hydroxy-4-methoxy-2-methylbenzaldehyde] | – | – | – | –
4 | – | – | 6.5 | 10 | 12.8 | 7.2 | 6.8 | 13.1 | – | 71 | 71 | COc1c(Cl)c(C)c(/C=N/O)c(O)c1C/C=C(C)/C=C/[C@@]1(C)[C@H](C)CCC(C)(O)[C@@H]1C (stereo partly drawn) [Compound 7, (E)-3-chloro-6-hydroxy-5-((2E,4E)-5-((1R,2R,6R)-3-hydroxy-1,2,3,6-tetramethylcyclohexyl)-3-methylpenta-2,4-dien-1-yl)-4-methoxy-2-methylbenzaldehyde oxime] | – | – | – | –
5 | 148 (≈ 77.1 µg/mL) | 23.7 (≈ 12.3 µg/mL) | 22.3 | 22.5 | 17 | 14.6 | 47.4 | 20.4 | – | 94 | 89 | CO/N=C/c1c(C)c(Cl)c(OC)c(C/C=C(C)/C=C/[C@@]2(C)[C@H](C)CC/C(=N\OCC(=O)O)[C@@H]2C)c1O [Compound 19, 2-([[(1E,2R,3R,4R)-3-[(1E,3E)-5-[3-chloro-6-hydroxy-2-methoxy-5-[(1E)-(methoxyimino)methyl]-4-methylphenyl]-3-methylpenta-1,3-dien-1-yl]-2,3,4-trimethylcyclohexylidene]amino]oxy)acetic Acid] | 30 | 25 | −31 | −68
6 | 168 (≈ 80.2 µg/mL) | 0.003 (≈ 0.00143 µg/mL) | 5.3 | 5 | 1.7 | 3.8 | 4.3 | 3.1 | – | 100 | 80 | CCNC1CC[C@@H](C)[C@](C)(/C=C/C(C)=C/Cc2c(O)c(/C=N/OC)c(C)c(Cl)c2OC)[C@H]1C (stereo partly drawn) [Compound 21, 4-chloro-2-[(2E,4E)-5-[(1R,2R,6R)-3-(ethylamino)-1,2,6-trimethylcyclohexyl]-3-methylpenta-2,4-dien-1-yl]-3-methoxy-6-[(1E)-(methoxyimino)methyl]-5-methylphenol] | – | – | – | –
7 | 39 (≈ 23 µg/mL) | 0.04 (≈ 0.0236 µg/mL) | 6.8 | 5.2 | 1.7 | 4.1 | 5 | 4.5 | – | 76 | 55 | CO/N=C/c1c(C)c(Cl)c(OC)c(C/C=C(C)/C=C/[C@@]2(C)[C@H](C)CC/C(=N\OCCN3CCN(C)CC3)[C@@H]2C)c1O [Compound 17, 4-chloro-3-methoxy-6-[(1E)-(methoxyimino)methyl]-5-methyl-2-[(2E,4E)-3-methyl-5-[(1R,2R,3E,6R)-1,2,6-trimethyl-3-[[2-(4-methylpiperazin-1-yl)ethoxy]imino]cyclohexyl]penta-2,4-dien-1-yl]phenol] | – | – | – | –
8 | 18 (≈ 8.6 µg/mL) | 0.01 (≈ 0.00478 µg/mL) | 2 | 3.6 | 2.2 | 0.8 | 5.3 | 3 | – | – | – | CC(/C=C/[C@@]1(C)[C@H](C)CCC(NC2CC2)[C@@H]1C)=C\Cc1c(O)c(C=O)c(C)c(Cl)c1OCF (stereo partly drawn) [Compound 13, 3-chloro-5-[(2E,4E)-5-[(1R,2R,6R)-3-(cyclopropylamino)-1,2,6-trimethylcyclohexyl]-3-methylpenta-2,4-dien-1-yl]-4-(fluoromethoxy)-6-hydroxy-2-methylbenzaldehyde] | – | – | – | –
9 | – | – | 4.3 | 6.4 | 11.4 | 4.2 | 5.1 | 9.1 | – | 67 | 47 | CC(/C=C/[C@@]1(C)[C@H](C)CC/C(=N\O)[C@@H]1C)=C\Cc1c(O)c(/C=N/O)c(C)c(Cl)c1OCF [Compound 4, 4-chloro-3-(fluoromethoxy)-2-[(2E,4E)-5-[(1R,2R,3E,6R)-3-(hydroxyimino)-1,2,6-trimethylcyclohexyl]-3-methylpenta-2,4-dien-1-yl]-6-[(1E)-(hydroxyimino)methyl]-5-methylphenol] | – | – | – | –
10 | 54 (≈ 28.8 µg/mL) | 0.29 (≈ 0.155 µg/mL) | 6.7 | 7 | 1.7 | 4.2 | 4.8 | 4.4 | – | 88 | 79 | CO/N=C/c1c(C)c(Cl)c(OC)c(C/C=C(C)/C=C/[C@@]2(C)[C@H](C)CC/C(=N\OCCN(C)C)[C@@H]2C)c1O [Compound 15, 4-chloro-2-[(2E,4E)-5-[(1R,2R,3E,6R)-3-[[2-(dimethylamino)ethoxy]imino]-1,2,6-trimethylcyclohexyl]-3-methylpenta-2,4-dien-1-yl]-3-methoxy-6-[(1E)-(methoxyimino)methyl]-5-methylphenol] | – | – | – | –
